Legend:
Assay type in all cases: biochemical
JNK1 = biological target: T1, JNK1 (Homo sapiens, UniProt P45983); assay: 33PanQinase kinase assay, selectivity against JNK1; conditions: ratio IC50 (JNK1)/IC50 (MKK4)
T1 construct: purchased ProQinase GmbH, Freiburg, Germany (assay service)
Method: (§1) The kinase activities of the compounds of the invention were measured using the 33PanQinase® Assay Service provided by ProQinase GmbH, Freiburg, Germany. Details of the assay conditions are disclosed on the website of ProQinase (https://www.proqinase.com/products-services-biochemical-assay-services/kinase-assays).
(§2) In brief, all kinase assays were performed in 96-well FlashPlates™ from PerkinElmer (Boston, MA, USA) in a 50 μl reaction volume. The reaction cocktail was pipetted in four steps in the following order: • 20 μl of assay buffer (standard buffer) • 5 μl of ATP solution (in H2O) • 5 μl of test compound (in 10% DMSO) • 20 μl enzyme/substrate mix
(§3) The assay for all protein kinases contained 70 mM HEPES-NaOH pH7.5, 3 mM MgCl2, 3 mM MnCl2, 3 μM Na-orthovanadate, 1.2 mM DTT, 50 μg/ml PEG20000, ATP (variable concentrations, corresponding to the apparent ATP-Km of the respective kinase), [γ-^33P]-ATP (approx. […] per well), protein kinase and substrate.
(§4) The reaction cocktails were incubated at 30° C. for 60 minutes. The reaction is stopped with 50 μl of 2% (v/v) H3PO4, plates were aspirated and washed two times with 200 μl 0.9% (w/v) NaCl. Incorporation of ^33Pi was determined with a microplate scintillation counter (Microbeta, Wallac).
(§5) All assays were performed with a BeckmanCoulter/SAGIAN™ Core System.
(§6) In case of single concentration assays, the potency of the test compound is expressed as % residual activity. For determination of IC50-values, serial dilutions in the final concentration range between 100 μM and 3 nM (10 concentrations) were tested. The fitting model for the IC50 determinations was “Sigmoidal response (variable slope)” with parameters “top” fixed at 100% and “bottom” at 0%. The fitting method used was a least-squares fit.
(§7) Selectivity of test compounds against BRaf, JNK1 and MKK7, altogether denominated as off-targets was calculated by the ratio of IC50 (off-target)/IC50 (MKK4) and categorized as follows: […]

MKK7 = biological target: T2, MKK7 (Homo sapiens, UniProt O14733); assay: 33PanQinase kinase assay, selectivity against MKK7; conditions: ratio IC50 (MKK7)/IC50 (MKK4)
T2 construct: purchased ProQinase GmbH, Freiburg, Germany (assay service)
T2 sequence (O14733 1-419): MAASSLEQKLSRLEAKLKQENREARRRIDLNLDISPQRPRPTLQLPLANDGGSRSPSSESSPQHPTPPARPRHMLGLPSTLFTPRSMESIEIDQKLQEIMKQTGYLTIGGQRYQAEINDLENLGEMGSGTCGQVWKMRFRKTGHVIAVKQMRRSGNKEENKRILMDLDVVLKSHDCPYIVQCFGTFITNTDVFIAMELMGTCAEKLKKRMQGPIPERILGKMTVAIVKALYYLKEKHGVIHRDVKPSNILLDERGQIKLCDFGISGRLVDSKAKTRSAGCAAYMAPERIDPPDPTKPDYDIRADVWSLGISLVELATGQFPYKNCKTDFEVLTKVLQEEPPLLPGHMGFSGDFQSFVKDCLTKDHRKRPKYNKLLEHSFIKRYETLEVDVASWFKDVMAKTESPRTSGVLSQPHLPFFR
Method: as §1, §2, §3, §4, §5, §6, §7

MKK4 = biological target: T3, MKK4 (Homo sapiens, UniProt P45985); assay: 33PanQinase kinase assay, MKK4 potency; conditions: based on inhibition of enzyme activity at a single concentration or on IC50-values
T3 construct: purchased ProQinase GmbH, Freiburg, Germany (assay service)
T3 sequence (P45985 1-399): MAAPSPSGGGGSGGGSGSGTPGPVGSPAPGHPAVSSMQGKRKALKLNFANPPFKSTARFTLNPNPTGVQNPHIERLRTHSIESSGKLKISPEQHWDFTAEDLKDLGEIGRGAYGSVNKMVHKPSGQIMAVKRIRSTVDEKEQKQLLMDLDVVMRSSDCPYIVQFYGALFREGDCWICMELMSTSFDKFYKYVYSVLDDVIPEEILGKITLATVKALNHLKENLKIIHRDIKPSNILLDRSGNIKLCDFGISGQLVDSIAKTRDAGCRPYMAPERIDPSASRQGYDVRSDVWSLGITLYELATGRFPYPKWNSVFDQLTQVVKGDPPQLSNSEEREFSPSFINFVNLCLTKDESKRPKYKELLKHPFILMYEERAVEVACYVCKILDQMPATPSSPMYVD
Method: as §1, §2, §3, §4, §5, §6

BRaf = biological target: T4, BRaf (Homo sapiens, UniProt P15056); assay: 33PanQinase kinase assay, selectivity against BRaf; conditions: ratio IC50 (BRaf)/IC50 (MKK4)
T4 construct: purchased ProQinase GmbH, Freiburg, Germany (assay service)
Method: as §1, §2, §3, §4, §5, §6, §7

T1 sequence (P45983 whole entry): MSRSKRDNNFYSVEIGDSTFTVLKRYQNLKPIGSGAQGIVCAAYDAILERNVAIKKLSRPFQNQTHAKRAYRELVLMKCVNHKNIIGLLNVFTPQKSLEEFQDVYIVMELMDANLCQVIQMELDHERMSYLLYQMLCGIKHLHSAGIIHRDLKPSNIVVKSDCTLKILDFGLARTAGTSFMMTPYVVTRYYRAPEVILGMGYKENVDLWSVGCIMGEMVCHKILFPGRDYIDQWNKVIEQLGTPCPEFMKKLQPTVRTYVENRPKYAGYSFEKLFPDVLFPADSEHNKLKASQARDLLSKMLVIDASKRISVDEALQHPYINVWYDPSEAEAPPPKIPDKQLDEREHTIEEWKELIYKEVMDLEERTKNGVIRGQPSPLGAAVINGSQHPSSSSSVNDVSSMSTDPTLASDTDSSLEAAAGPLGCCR
T4 sequence (P15056 whole entry): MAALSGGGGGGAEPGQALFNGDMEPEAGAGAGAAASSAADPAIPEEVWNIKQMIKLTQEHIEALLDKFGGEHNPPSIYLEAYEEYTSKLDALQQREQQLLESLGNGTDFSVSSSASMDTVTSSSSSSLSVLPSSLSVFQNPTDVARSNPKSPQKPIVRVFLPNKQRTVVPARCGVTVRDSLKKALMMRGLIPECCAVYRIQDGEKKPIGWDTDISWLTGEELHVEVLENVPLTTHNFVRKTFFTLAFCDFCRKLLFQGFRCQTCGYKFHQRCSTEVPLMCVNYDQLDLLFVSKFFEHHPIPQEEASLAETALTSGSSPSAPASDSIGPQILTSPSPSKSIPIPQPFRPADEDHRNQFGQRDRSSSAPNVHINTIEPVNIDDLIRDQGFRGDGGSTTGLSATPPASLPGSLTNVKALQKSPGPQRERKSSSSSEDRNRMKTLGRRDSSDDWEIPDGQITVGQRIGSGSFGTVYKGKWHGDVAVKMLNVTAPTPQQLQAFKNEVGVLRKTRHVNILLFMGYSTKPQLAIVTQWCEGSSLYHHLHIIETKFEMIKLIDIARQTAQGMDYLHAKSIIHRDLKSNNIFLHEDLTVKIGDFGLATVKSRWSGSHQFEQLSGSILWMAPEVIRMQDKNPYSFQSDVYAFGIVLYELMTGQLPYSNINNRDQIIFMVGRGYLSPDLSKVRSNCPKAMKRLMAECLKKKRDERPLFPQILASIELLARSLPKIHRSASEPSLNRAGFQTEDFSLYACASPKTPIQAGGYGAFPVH

For `CCCS(=O)(=O)Nc1c(F)ccc(C(=O)c2c[nH]c3ncc(-c4ccc(C(=O)NOCCO)cc4)cc23)c1F` [Example 3, 4-(3-(2,4-difluoro-3-(propylsulfonamido)benzoyl)-1H-pyrrolo[2,3-b]pyridin-5-yl)-N-(2-hydroxyethoxy)benzamide], the “Selectivity JNK1, IC50(off-target)/IC50(MKK4)” value (“Selectivity JNK1” below) (JNK1) was “++ (100 ≥ IC50(off-target)/IC50(MKK4) > 10)”, the “Selectivity MKK7, IC50(off-target)/IC50(MKK4)” value (“Selectivity MKK7” below) (MKK7) was “+++ (IC50(off-target)/IC50(MKK4) > 100)” and the IC50 (MKK4) was under 100 nM. For the same compound, the “Selectivity BRaf, IC50(off-target)/IC50(MKK4)” value (“Selectivity BRaf” below) (BRaf) was “++ (100 ≥ IC50(off-target)/IC50(MKK4) > 10)”.
In the case of `CCCS(=O)(=O)Nc1c(F)ccc(C(=O)c2c[nH]c3ncc(-c4ccc(P(C)(C)=O)cc4)cc23)c1F` [Example 4], the “Selectivity JNK1” value (JNK1) is reported as “++ (100 ≥ IC50(off-target)/IC50(MKK4) > 10)”, the “Selectivity MKK7” value (MKK7) is reported as “+++ (IC50(off-target)/IC50(MKK4) > 100)” and the IC50 (MKK4) is reported as under 100 nM. The “Selectivity BRaf” value (BRaf) was “++ (100 ≥ IC50(off-target)/IC50(MKK4) > 10)”.
In the case of `CCCS(=O)(=O)Nc1c(F)ccc(C(=O)c2c[nH]c3ncc(-c4cnc(C5CCC5)nc4)cc23)c1F` [Example 5], the “Selectivity JNK1” value (JNK1) is reported as “+++ (IC50(off-target)/IC50(MKK4) > 100)”, the “Selectivity MKK7” value (MKK7) is reported as “+++ (IC50(off-target)/IC50(MKK4) > 100)” and the IC50 (MKK4) is reported as 100 to 1000 nM. The “Selectivity BRaf” value (BRaf) was “+++ (IC50(off-target)/IC50(MKK4) > 100)”.
For `CCCS(=O)(=O)Nc1c(F)ccc(C(=O)c2c[nH]c3ncc(-c4cnc(C5CCCC5)nc4)cc23)c1F` [Example 6], the “Selectivity JNK1” value (JNK1) was “++ (100 ≥ IC50(off-target)/IC50(MKK4) > 10)”, the “Selectivity MKK7” value (MKK7) was “+++ (IC50(off-target)/IC50(MKK4) > 100)” and the IC50 (MKK4) was 1000 to 10000 nM. The “Selectivity BRaf” value (BRaf) was “+++ (IC50(off-target)/IC50(MKK4) > 100)”.
In the case of `CCCS(=O)(=O)Nc1c(F)cc(F)c(C(=O)c2c[nH]c3ncc(-c4cnc(C5CC5)nc4)cc23)c1F` [Example 7], the “Selectivity JNK1” value (JNK1) is reported as “+++ (IC50(off-target)/IC50(MKK4) > 100)”, the “Selectivity MKK7” value (MKK7) is reported as “+++ (IC50(off-target)/IC50(MKK4) > 100)” and the IC50 (MKK4) is reported as under 100 nM. The “Selectivity BRaf” value (BRaf) was “+++ (IC50(off-target)/IC50(MKK4) > 100)”.
`CCCS(=O)(=O)Nc1c(F)ccc(C(=O)c2c[nH]c3ncc(-c4cnc(OC)nc4C)cc23)c1F` [Example 8] was tested, and the “Selectivity JNK1” value (JNK1) was “+ (10 ≥ IC50(off-target)/IC50(MKK4) > 3)”, the “Selectivity MKK7” value (MKK7) was “+++ (IC50(off-target)/IC50(MKK4) > 100)” and the IC50 (MKK4) was under 100 nM. For the same compound, the “Selectivity BRaf” value (BRaf) was “++ (100 ≥ IC50(off-target)/IC50(MKK4) > 10)”.
For `CCCS(=O)(=O)Nc1c(F)ccc(C(=O)c2c[nH]c3ncc(-c4cncnc4C)cc23)c1F` [Example 9], the “Selectivity JNK1” value (JNK1) was “++ (100 ≥ IC50(off-target)/IC50(MKK4) > 10)”, the “Selectivity MKK7” value (MKK7) was “+++ (IC50(off-target)/IC50(MKK4) > 100)” and the IC50 (MKK4) was under 100 nM. For the same compound, the “Selectivity BRaf” value (BRaf) was “+++ (IC50(off-target)/IC50(MKK4) > 100)”.
With `CCCS(=O)(=O)Nc1c(F)ccc(C(=O)c2c[nH]c3ncc(-c4cnc(C)nc4C)cc23)c1F` [Example 10] the “Selectivity JNK1” value (JNK1) was “+++ (IC50(off-target)/IC50(MKK4) > 100)”, the “Selectivity MKK7” value (MKK7) was “+++ (IC50(off-target)/IC50(MKK4) > 100)” and the IC50 (MKK4) was under 100 nM. For the same compound, the “Selectivity BRaf” value (BRaf) was “+++ (IC50(off-target)/IC50(MKK4) > 100)”.
With `CCCS(=O)(=O)Nc1c(F)ccc(C(=O)c2c[nH]c3ncc(-c4cnc(C5CC5)nc4C)cc23)c1F` [Example 11] the “Selectivity JNK1” value (JNK1) was “+++ (IC50(off-target)/IC50(MKK4) > 100)”, the “Selectivity MKK7” value (MKK7) was “+++ (IC50(off-target)/IC50(MKK4) > 100)” and the IC50 (MKK4) was under 100 nM. The “Selectivity BRaf” value (BRaf) was “+++ (IC50(off-target)/IC50(MKK4) > 100)”.
`CCCS(=O)(=O)Nc1c(F)ccc(C(=O)c2c[nH]c3ncc(-c4cnc(C5CC5)nc4SC)cc23)c1F` [Example 12] was tested, and the “Selectivity JNK1” value (JNK1) was “++ (100 ≥ IC50(off-target)/IC50(MKK4) > 10)”, the “Selectivity MKK7” value (MKK7) was “+++ (IC50(off-target)/IC50(MKK4) > 100)” and the IC50 (MKK4) was 100 to 1000 nM. For the same compound, the “Selectivity BRaf” value (BRaf) was “++ (100 ≥ IC50(off-target)/IC50(MKK4) > 10)”.
For `CCCS(=O)(=O)Nc1c(F)ccc(C(=O)c2c[nH]c3ncc(-c4cnc(OCC(C)(C)C)nc4)cc23)c1F` [Example 13], the “Selectivity JNK1” value (JNK1) was “+ (10 ≥ IC50(off-target)/IC50(MKK4) > 3)”, the “Selectivity MKK7” value (MKK7) was “+ (10 ≥ IC50(off-target)/IC50(MKK4) > 3)” and the IC50 (MKK4) was over 10000 nM. The “Selectivity BRaf” value (BRaf) was “+ (10 ≥ IC50(off-target)/IC50(MKK4) > 3)”.
With `O=C(c1c(F)cc(F)c(NS(=O)(=O)Cc2ccccc2)c1F)c1c[nH]c2ncc(-c3cnc(C4CC4)nc3)cc12` [Example 14] the “Selectivity JNK1” value (JNK1) was “++ (100 ≥ IC50(off-target)/IC50(MKK4) > 10)”, the “Selectivity MKK7” value (MKK7) was “+++ (IC50(off-target)/IC50(MKK4) > 100)” and the IC50 (MKK4) was under 100 nM. The “Selectivity BRaf” value (BRaf) was “++ (100 ≥ IC50(off-target)/IC50(MKK4) > 10)”.

Source: patent US12466826B2, “3-benzoyl-1H-pyrrolo[2,3-b]pyridine derivatives as MKK4 inhibitors for treating liver diseases” (HepaRegeniX GmbH, priority 2020, dated 2025)
